From article PMC2900060, “Antioxidant and hepatoprotective effects of the methanol extract of the leaves of Satureja macrostema” (Pharmacognosy Magazine, 2010)
In brackets after ≈: the same amount, converted by molar mass.

Key:
[1] = Inhibition of DPPH radical; details: concentration 100 μg/ml (table head prints mg/ml for SM)
Experimental: The free radical scavenging activity of the extract was analyzed by the DPPH (1,1-- diphenyl-- 2--picryl hydrazyl) assay.[10] A total of 2 ml of the test extract, at concentrations ranging from 1 μg/ml to 100 μg/ml each, was mixed with 1 ml of 0.5 mM DPPH (in methanol). The absorbance at 517 nm was taken after 30 min of incubation in the dark at room temperature. The experiment was done in triplicate. The percentage antioxidant activity was calculated as follows: %Antioxidant Activity [AA] = l00 --[ { (Abssample -- Absblank) X 100 }/Abs ml of methanol plus 2.0 ml of the extract was used as the blank while 1.0 ml of the 0.3 mM DPPH solution plus 2.0 ml of methanol was used as the negative control. Ascorbic acid was used as the reference standard.

[2] = Iron-chelating activity (ferrozine); details: Fe2+-ferrozine, Table 2
Experimental: After 5 min incubation, the reaction was initiated by 1.0 ml of 5.0 mM ferrozine. After 10 min of equilibrium, the absorbance at 562 nm was recorded. The controls contained all reaction reagents except extracts or positive control substance. Three experiments were performed and the average result was adopted. The iron-chelating activities were calculated from the absorbance of the control (Ac) and of the sample (As) using the following equation: Inhibition(%) = Ac −As × 100 Ac

[3] = Inhibition of superoxide anion radical (NBT/NADH/PMS); details: concentration 50 μg/ml
Experimental: Measurement of superoxide anion scavenging activity of SM was performed based on the method described by […][11] and slightly modified. About 1 ml of nitroblue tetrazolium (NBT) solution containing 156 μM NBT which is dissolved in 1.0 ml of phosphate buffer (100 mM, pH 7.4), 1 ml of NADH solution containing 468 μM of NADH which is dissolved in 1 ml of phosphate buffer (100 mM, pH 7.4) and 0.1 ml of various concentrations of SM and the reference compounds (5, 10, 25, 50 and 100 μg) were mixed and the reaction started by adding l00 μl of phenazine methosulphate (PMS) solution containing 60 μM of PMS l00 μl of phosphate buffer (100 mM, pH 7.4). The reaction mixture was incubated at 25°C for 5 min and the absorbance at 560 nm was measured against the control samples. All the tests were performed in triplicate and the results were averaged. The percentage decrease in absorbance was calculated.[10] Quercetine was used as the standard.

[4] = Inhibition of nitric oxide radical (sodium nitroprusside, Griess reaction); details: concentration 50 μg/ml
Experimental: Nitric oxide generated from sodium nitroprusside in aqueous solution at physiological pH interacts with oxygen to produce nitrite ions, which were measured by the Griess reaction.[1213] The reaction mixture (3 ml) containing sodium nitroprusside (10 Mm) in phosphate buffered saline (PES) and SM and the reference compound in different concentrations (5, 10, 25, 50 and 100 μg) were incubated at 25°C for 150 min. In each 30 min, 0.5 ml of the incubated sample was removed and 0.5 ml of the Griess reagent (1% sulfanilamide, 0.1% naphthyl ethylene diamine dihydrochloride in 2% H3PO4) was added. The absorbance of the chromophore formed was measured at 546 nm. All the tests were performed in triplicate and the results were averaged. BHT was used as the reference compound. All the tests were performed in triplicate and the results were averaged. The percentage decrease in absorbance was calculated.[10] Quercetine was used as the standard.

O=C1O[C@H]([C@@H](O)CO)C(O)=C1O [Ascorbic acid]
DPPH scavenging [1]: 97 ± 0.52 %
DPPH scavenging ([1]; listed as ascorbic acid): 97%
IC50 Ion-chelating [2]: 49.3 mg/mL (≈ 280 mM)

Cc1cc(C(C)(C)C)c(O)c(C(C)(C)C)c1 [BHT]
IC50 Ion-chelating [2]: 46.6 mg/mL (≈ 211 mM)

O=c1c(O)c(-c2ccc(O)c(O)c2)oc2cc(O)cc(O)c12 [Quercetin]
Superoxide anion scavenging [3]: 90.87 ± 0.43 %
Nitric oxide scavenging [4]: 93.8 ± 0.98 %
